Experimental data taken from ChEMBL document CHEMBL5291721, “A preclinical secondary pharmacology resource illuminates target-adverse drug reaction associations of marketed drugs” (Nat Commun, 2023).

How the values were obtained:
[1] = target: T1, 5-hydroxytryptamine receptor 2B (Homo sapiens, UniProt P41595); format: functional, cell-based
[2] = target: T2, Alpha-1A adrenergic receptor (Homo sapiens, UniProt P35348); format: functional, cell-based
T2 sequence (P35348 whole entry): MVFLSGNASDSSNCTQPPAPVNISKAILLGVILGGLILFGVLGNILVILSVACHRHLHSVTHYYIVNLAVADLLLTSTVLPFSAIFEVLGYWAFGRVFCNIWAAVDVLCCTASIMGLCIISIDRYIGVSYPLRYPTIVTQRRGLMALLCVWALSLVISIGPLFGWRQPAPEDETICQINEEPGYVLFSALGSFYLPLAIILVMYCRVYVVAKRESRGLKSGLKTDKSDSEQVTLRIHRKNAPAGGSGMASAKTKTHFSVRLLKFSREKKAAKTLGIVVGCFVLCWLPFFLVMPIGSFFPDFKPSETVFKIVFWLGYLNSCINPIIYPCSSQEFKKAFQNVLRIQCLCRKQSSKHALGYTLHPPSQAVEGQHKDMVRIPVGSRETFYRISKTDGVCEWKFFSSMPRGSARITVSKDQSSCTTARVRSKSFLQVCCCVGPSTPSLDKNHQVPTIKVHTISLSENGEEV

[3] = target: T3, Muscarinic acetylcholine receptor M2 (Homo sapiens, UniProt P08172); format: functional, cell-based
T3 sequence (P08172 whole entry): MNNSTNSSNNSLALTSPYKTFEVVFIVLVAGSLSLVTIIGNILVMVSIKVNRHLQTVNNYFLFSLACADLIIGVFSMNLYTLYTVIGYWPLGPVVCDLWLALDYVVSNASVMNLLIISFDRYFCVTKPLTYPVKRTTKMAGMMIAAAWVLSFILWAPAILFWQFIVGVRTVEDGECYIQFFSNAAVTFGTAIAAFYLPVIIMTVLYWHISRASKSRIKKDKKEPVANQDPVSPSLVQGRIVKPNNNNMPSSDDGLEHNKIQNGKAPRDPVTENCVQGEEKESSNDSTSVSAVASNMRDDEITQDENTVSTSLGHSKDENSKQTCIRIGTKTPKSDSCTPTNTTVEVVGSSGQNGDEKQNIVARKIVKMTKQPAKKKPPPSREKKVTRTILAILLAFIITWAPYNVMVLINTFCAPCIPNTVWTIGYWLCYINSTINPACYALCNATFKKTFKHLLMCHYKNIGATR

Cannabinoid receptor 1 = Cannabinoid receptor 1 (Homo sapiens, UniProt P21554); format: functional, cell-based
[4] = target: T4, Gamma-aminobutyric acid receptor subunit alpha-1 (Rattus norvegicus, UniProt P62813)
Histamine H3 receptor [5] = target: T5, Histamine H3 receptor (Homo sapiens, UniProt Q9Y5N1)
[6] = target: T4, Gamma-aminobutyric acid receptor subunit alpha-1; format: functional
Glucocorticoid receptor = target: T6, Glucocorticoid receptor (Homo sapiens, UniProt P04150)
T6 sequence (P04150 whole entry): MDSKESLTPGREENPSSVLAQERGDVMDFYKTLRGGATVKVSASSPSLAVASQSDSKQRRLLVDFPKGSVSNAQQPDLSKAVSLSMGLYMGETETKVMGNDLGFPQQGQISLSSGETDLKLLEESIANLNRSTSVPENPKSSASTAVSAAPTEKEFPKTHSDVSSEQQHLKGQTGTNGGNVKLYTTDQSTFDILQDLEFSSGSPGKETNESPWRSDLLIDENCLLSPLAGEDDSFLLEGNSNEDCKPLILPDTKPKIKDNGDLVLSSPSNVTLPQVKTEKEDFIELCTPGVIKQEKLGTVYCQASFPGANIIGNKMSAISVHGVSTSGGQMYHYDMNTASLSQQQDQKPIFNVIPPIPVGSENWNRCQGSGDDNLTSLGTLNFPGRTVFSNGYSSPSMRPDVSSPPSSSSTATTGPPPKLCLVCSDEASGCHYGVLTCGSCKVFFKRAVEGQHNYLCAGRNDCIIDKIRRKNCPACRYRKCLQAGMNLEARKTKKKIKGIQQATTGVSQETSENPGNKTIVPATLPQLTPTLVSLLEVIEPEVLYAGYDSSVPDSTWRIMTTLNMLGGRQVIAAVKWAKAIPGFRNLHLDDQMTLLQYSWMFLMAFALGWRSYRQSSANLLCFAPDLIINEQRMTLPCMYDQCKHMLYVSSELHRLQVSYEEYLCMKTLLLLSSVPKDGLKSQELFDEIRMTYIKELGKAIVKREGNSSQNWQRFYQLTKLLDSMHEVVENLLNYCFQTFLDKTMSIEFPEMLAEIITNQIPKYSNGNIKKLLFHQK

Acetylcholinesterase = Acetylcholinesterase (Homo sapiens, UniProt P22303); format: functional
[7] = target: T3, Muscarinic acetylcholine receptor M2
Histamine H3 receptor [8] = target: T5, Histamine H3 receptor; remark: listed apart in the source
[9] = target: T1, 5-hydroxytryptamine receptor 2B; format: functional, cell-based; remark: listed apart in the source
[10] = target: 3',5'-cyclic-AMP phosphodiesterase 4A (Homo sapiens, UniProt P27815); format: functional
[11] = target: T2, Alpha-1A adrenergic receptor; format: functional, cell-based; remark: listed apart in the source
[12] = target: Vascular endothelial growth factor receptor 2 (Homo sapiens, UniProt P35968); format: functional
Note: assay procedure not described here.

Chain of Vascular endothelial growth factor receptor 2 (P35968 whole entry): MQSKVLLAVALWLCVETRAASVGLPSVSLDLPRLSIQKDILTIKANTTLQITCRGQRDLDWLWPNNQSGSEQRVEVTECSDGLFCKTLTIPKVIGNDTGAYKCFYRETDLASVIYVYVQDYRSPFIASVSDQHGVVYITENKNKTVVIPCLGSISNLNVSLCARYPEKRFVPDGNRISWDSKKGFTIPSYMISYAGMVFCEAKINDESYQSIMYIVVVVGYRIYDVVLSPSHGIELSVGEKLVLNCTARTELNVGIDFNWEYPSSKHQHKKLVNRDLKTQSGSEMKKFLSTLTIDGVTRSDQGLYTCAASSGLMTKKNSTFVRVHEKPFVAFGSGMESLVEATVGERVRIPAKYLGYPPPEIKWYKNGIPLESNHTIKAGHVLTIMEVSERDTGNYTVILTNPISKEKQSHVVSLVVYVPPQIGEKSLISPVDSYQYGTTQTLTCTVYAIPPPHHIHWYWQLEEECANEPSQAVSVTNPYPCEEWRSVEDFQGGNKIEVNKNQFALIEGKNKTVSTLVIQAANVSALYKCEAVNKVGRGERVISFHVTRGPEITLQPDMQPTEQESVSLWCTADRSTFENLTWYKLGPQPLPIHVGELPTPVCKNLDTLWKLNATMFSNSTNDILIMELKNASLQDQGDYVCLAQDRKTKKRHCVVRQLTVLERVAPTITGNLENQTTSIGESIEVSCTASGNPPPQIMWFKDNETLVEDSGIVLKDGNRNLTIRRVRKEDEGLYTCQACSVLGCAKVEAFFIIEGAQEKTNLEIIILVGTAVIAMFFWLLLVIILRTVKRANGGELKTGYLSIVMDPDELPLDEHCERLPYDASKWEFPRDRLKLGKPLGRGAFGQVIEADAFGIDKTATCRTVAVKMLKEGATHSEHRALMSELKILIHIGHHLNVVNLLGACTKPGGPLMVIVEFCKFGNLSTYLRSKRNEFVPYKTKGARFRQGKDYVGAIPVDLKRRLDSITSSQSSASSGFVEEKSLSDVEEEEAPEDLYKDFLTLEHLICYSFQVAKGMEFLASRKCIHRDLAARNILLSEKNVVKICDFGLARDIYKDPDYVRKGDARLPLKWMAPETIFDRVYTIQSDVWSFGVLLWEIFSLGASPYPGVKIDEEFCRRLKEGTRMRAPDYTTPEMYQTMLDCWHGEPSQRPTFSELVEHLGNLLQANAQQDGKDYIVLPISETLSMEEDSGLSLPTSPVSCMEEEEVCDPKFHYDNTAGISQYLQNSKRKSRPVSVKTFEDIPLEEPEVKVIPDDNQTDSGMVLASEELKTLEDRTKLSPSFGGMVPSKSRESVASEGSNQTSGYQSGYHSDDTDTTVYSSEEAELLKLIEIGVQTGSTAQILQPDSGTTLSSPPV
Chain of 3',5'-cyclic-AMP phosphodiesterase 4A (P27815 whole entry): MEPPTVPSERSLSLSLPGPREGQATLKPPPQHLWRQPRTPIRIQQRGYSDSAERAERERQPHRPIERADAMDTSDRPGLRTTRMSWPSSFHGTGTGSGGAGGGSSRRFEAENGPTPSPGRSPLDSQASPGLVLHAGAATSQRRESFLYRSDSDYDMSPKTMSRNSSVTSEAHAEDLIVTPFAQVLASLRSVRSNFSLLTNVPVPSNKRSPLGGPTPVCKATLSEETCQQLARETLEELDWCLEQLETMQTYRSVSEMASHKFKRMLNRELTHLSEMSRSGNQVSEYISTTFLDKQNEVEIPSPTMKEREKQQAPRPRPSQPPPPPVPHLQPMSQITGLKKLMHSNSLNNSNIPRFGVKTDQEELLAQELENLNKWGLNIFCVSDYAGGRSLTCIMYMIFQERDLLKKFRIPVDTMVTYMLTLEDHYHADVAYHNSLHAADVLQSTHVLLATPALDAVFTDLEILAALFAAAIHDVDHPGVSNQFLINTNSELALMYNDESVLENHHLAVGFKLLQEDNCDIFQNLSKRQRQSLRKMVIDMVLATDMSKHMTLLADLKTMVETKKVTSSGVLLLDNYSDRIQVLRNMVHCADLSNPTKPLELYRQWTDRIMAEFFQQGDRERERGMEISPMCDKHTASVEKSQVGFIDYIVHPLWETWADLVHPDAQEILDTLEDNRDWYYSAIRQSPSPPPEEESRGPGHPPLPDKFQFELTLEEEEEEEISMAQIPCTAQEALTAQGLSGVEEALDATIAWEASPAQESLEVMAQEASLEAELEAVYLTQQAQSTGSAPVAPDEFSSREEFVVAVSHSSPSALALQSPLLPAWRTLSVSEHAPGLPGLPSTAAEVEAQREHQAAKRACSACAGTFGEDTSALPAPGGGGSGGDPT
T5 sequence (Q9Y5N1 whole entry): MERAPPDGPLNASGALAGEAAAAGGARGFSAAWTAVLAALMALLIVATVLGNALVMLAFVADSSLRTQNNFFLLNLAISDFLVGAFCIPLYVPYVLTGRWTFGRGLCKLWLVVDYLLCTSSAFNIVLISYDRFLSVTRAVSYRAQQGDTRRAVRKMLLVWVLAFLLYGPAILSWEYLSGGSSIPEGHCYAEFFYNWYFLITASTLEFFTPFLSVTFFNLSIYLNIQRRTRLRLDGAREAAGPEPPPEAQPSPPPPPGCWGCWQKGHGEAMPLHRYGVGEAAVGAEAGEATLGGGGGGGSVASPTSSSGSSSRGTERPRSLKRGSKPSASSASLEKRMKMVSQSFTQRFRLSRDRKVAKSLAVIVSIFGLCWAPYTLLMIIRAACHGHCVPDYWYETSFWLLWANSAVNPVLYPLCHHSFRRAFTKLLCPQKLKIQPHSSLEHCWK
T1 sequence (P41595 whole entry): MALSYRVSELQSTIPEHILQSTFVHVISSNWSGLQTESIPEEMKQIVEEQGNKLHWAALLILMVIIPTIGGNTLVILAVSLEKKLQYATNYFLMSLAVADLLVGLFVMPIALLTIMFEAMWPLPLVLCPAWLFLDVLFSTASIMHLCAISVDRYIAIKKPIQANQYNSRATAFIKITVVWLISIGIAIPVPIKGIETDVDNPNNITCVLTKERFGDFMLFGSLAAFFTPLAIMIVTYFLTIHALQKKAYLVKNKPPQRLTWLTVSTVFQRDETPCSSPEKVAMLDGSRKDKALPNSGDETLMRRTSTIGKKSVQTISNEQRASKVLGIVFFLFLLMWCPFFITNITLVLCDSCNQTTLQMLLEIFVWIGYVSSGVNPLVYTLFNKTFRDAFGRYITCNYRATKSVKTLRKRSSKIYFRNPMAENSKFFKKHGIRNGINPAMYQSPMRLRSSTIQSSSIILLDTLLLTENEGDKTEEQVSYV
Chain of Cannabinoid receptor 1 (P21554 whole entry): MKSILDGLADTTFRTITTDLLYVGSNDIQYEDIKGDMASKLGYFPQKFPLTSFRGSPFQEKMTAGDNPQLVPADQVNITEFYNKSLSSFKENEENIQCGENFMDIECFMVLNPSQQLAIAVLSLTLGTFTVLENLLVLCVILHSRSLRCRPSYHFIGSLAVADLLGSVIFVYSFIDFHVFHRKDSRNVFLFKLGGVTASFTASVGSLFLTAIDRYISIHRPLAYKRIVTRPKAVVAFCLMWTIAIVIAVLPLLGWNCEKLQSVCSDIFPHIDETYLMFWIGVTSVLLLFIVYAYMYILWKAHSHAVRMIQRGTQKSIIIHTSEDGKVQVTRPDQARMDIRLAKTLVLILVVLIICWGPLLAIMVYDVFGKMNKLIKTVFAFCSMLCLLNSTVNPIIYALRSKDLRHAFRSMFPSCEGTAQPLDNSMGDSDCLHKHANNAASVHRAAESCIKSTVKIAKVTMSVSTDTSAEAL
T4 sequence (P62813 whole entry): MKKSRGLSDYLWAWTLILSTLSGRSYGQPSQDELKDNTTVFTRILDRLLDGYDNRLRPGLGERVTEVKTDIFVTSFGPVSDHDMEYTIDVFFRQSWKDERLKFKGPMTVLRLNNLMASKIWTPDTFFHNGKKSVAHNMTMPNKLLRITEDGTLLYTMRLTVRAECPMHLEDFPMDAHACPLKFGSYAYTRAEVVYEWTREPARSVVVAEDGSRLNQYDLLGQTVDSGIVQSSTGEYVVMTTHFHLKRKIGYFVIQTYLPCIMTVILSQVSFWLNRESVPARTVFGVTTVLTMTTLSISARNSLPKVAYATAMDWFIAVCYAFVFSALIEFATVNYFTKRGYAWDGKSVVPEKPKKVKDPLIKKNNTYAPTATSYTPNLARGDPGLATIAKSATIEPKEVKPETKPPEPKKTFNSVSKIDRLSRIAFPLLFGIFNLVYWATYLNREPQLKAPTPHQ
Chain of Acetylcholinesterase (P22303 whole entry): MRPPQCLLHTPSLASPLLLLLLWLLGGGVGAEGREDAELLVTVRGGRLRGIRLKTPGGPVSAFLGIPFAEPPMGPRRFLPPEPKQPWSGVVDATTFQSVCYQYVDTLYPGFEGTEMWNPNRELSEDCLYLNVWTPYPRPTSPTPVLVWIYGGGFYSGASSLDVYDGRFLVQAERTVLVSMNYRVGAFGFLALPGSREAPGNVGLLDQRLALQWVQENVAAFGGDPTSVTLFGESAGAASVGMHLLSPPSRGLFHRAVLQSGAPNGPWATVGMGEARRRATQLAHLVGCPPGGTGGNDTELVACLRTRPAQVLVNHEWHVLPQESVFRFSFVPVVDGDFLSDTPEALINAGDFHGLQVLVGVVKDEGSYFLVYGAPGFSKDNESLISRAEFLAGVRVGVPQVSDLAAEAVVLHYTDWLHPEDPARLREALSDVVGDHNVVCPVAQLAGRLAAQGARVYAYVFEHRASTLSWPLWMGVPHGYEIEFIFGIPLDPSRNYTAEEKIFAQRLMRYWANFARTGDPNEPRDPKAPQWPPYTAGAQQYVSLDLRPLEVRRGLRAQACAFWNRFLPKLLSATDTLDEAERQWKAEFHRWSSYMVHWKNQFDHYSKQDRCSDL

| Structure (SMILES) | AC50 [1] | AC50 [2] | AC50 [3] | AC50 (Cannabinoid receptor 1) | AC50 [4] | AC50 (Histamine H3 receptor [5]) | AC50 [6] | AC50 (Glucocorticoid receptor) | AC50 (Acetylcholinesterase) | AC50 [7] | AC50 (Histamine H3 receptor [8]) | AC50 [9] | AC50 [10] | AC50 [11] | AC50 [12] |
| --- | --- | --- | --- | --- | --- | --- | --- | --- | --- | --- | --- | --- | --- | --- | --- |
| C[C@]12CC[C@@H]3c4ccc(O)cc4C[C@@H](CCCCCCCCC[S+]([O-])CCCC(F)(F)C(F)(F)F)[C@H]3[C@@H]1CC[C@@H]2O (some centres not stated) [FULVESTRANT] | > 30 µM | > 30 µM | > 30 µM | > 30 µM | > 30 µM | > 30 µM | > 30 µM | 1.1 µM |  |  |  |  |  |  |  |
| CCC(C)C(CC)C(N)=O (configuration not stated) [VALNOCTAMIDE] |  | > 30 µM | > 30 µM | > 30 µM | > 30 µM | > 30 µM | > 30 µM | > 30 µM |  |  |  |  |  |  |  |
| CC(=O)O[C@]1(C(C)=O)CC[C@H]2[C@@H]3C=C(Cl)C4=CC(=O)CC[C@]4(C)[C@H]3CC[C@@]21C [CHLORMADINONE ACETATE] |  |  |  |  |  |  |  |  | > 30 µM | 25.3 µM | > 30 µM | > 30 µM | > 30 µM | 18 µM | > 30 µM |
| CCOC(=O)C1=C[C@]2(CC)CCCN3CCc4c(n1c1ccccc41)[C@@H]32 [VINPOCETINE] |  | > 30 µM |  | > 30 µM | > 30 µM | 18 µM | > 30 µM | > 30 µM |  |  |  |  |  |  |  |
| CN1CCN(C2=Nc3ccccc3Oc3ccc(Cl)cc32)CC1 [LOXAPINE] |  | 0.44 µM |  | > 30 µM | > 10 µM | > 10 µM | > 10 µM | > 30 µM | > 30 µM |  | > 30 µM |  | > 30 µM | 0.0734 µM | > 30 µM |
| O=[N+]([O-])c1ccc(O)c2ncccc12 [NITROXOLINE] | > 30 µM | > 30 µM | > 30 µM | > 30 µM | > 30 µM |  | > 30 µM |  | > 10 µM | > 30 µM | > 30 µM | > 30 µM | > 30 µM |  |  |
| CC1(C)S[C@@H]2[C@H](NC(=O)[C@H](N)c3ccccc3)C(=O)N2[C@H]1C(=O)OCOC(=O)[C@@H]1N2C(=O)C[C@H]2S(=O)(=O)C1(C)C [SULTAMICILLIN] | > 30 µM | > 30 µM | > 30 µM | > 30 µM |  | > 30 µM | > 30 µM | > 30 µM |  |  |  |  |  |  |  |
| C=C1CC[C@H](O)C/C1=C/C=C1\CCC[C@]2(C)[C@@H]([C@H](C)/C=C/[C@H](C)C(C)C)CC[C@@H]12 [ERGOCALCIFEROL] |  |  |  |  |  |  |  |  | > 30 µM | > 30 µM | > 30 µM | > 30 µM | > 30 µM |  |  |
| Cc1cccc(N2CC(CO)OC2=O)c1 (configuration not stated) [TOLOXATONE] | > 30 µM | > 30 µM | > 30 µM | > 30 µM | > 30 µM | > 30 µM | > 30 µM | > 30 µM |  |  |  |  |  |  |  |
| Oc1ccc2c(c1)CC[C@H](c1ccccc1)[C@@H]2c1ccc(OCCN2CCCC2)cc1 [LASOFOXIFENE] | 9.49 µM | 12 µM |  | > 30 µM | > 30 µM | 0.99 µM | > 30 µM | 9.3 µM |  |  |  |  |  |  |  |
| Cc1ccccc1N1CCN(CCc2nnc3n2CCCC3)CC1 [DAPIPRAZOLE] |  |  |  |  |  |  |  |  | > 30 µM | 7.61 µM | > 30 µM | > 30 µM | > 30 µM |  | > 30 µM |
| COc1cc(N)c(Cl)cc1C(=O)NC1CCN(Cc2ccccc2)CC1 [CLEBOPRIDE] | 0.98 µM | 14 µM | > 30 µM | > 30 µM | > 30 µM | > 30 µM | 0.13 µM | > 30 µM |  |  |  |  |  |  |  |
| C#C[C@]1(OC(C)=O)CC[C@H]2[C@@H]3CCC4=C/C(=N/O)CC[C@@H]4[C@H]3CC[C@@]21CC [NORGESTIMATE] | > 30 µM | > 30 µM | > 30 µM | > 30 µM | > 30 µM | > 30 µM | > 30 µM | 0.041 µM |  |  |  |  |  |  |  |
| COCC1=C(C(=O)O)N2C(=O)[C@@H](NC(=O)/C(=N\OC)c3csc(N)n3)[C@H]2SC1 [CEFPODOXIME] | > 30 µM | > 30 µM | > 30 µM | > 30 µM | > 30 µM | > 30 µM | > 30 µM | > 30 µM |  |  |  |  |  |  |  |
| Clc1ccc2c(N3CCN(CCCN4CCN(c5ccnc6cc(Cl)ccc56)CC4)CC3)ccnc2c1 [PIPERAQUINE] | > 30 µM | > 30 µM | > 30 µM | > 30 µM | > 30 µM | 6.1 µM | > 30 µM | > 30 µM |  |  |  |  |  |  |  |
| CC(=O)N[C@@H](CS)C(=O)O [ACETYLCYSTEINE] | > 30 µM | > 30 µM | > 30 µM | > 30 µM | > 30 µM | > 30 µM | > 30 µM | > 30 µM |  |  |  |  |  |  |  |
| CC(C)NCC(O)c1ccc(O)c(O)c1 (configuration not stated) [ISOPROTERENOL] | > 10 µM |  | > 10 µM | > 30 µM | > 10 µM | > 10 µM | > 10 µM | > 30 µM |  |  |  |  |  |  |  |
| C[C@]12CCC(=O)C(O)=C1CC[C@@H]1[C@@H]2CC[C@]2(C)C(=O)CC[C@@H]12 [FORMESTANE] | > 30 µM | > 30 µM | > 30 µM | > 30 µM | > 30 µM | > 30 µM | > 30 µM | > 30 µM |  |  |  |  |  |  |  |
| CC(C)COCC(CN(Cc1ccccc1)c1ccccc1)N1CCCC1 (configuration not stated) [BEPRIDIL] | 28 µM |  | > 30 µM |  |  | > 30 µM |  | > 30 µM |  |  |  |  |  |  |  |
| C/N=C(\NC)NCc1ccccc1 [BETHANIDINE] | > 30 µM | > 30 µM | > 30 µM | > 30 µM |  | > 30 µM | > 30 µM | > 30 µM |  |  |  |  |  |  |  |
| CC(C(=O)O)c1ccc(CC2CCCC2=O)cc1 (configuration not stated) [LOXOPROFEN] | > 30 µM | > 30 µM | > 30 µM | > 30 µM | > 30 µM | > 30 µM | > 30 µM |  |  |  |  |  |  |  |  |
| O=C(O)c1cn(C2CC2)c2cc(N3CCNCC3)c(F)cc2c1=O [CIPROFLOXACIN] |  |  |  |  |  |  |  | > 30 µM |  |  |  |  | > 30 µM |  |  |
| CN(C)CCCNc1c2ccccc2nc2cccc([N+](=O)[O-])c12 [NITRACRINE] | 0.76 µM | 6.7 µM | 16 µM | > 30 µM | > 30 µM | > 10 µM | 18 µM | > 30 µM |  |  |  |  |  |  |  |
| CCC(C)C1(CC)C(=O)NC(=O)NC1=O (configuration not stated) [BUTABARBITAL] | > 30 µM | > 30 µM | > 30 µM | > 30 µM |  | > 30 µM |  | > 30 µM |  |  |  |  |  |  |  |
